The values below come from ChEMBL document CHEMBL1139946, “1-Aryl-4,6-dihydropyrazolo[4,3-d][1]benzazepin-5(1H)-ones: a new class of antiproliferative agents with selectivity for human leukemia and breast cancer cell lines” (Eur J Med Chem, 2007).

Structures are written as SMILES.

Test [1] concerns the target Receptor tyrosine-protein kinase erbB-2 (Homo sapiens) (UniProt P04626). Nature of the test: Inhibition of ERBB2 at 10 uM.
Test [2] has as its target Insulin-like growth factor 1 receptor (Homo sapiens) (UniProt P08069). Kind of test: Inhibition of IGF1R at 10 uM.
Test [3] has as its target Vascular endothelial growth factor receptor 3 (Homo sapiens, UniProt P35916). Nature of the test: Inhibition of VEGFR3 at 10 uM.
For test [4], the species on record is Homo sapiens. Nature of the test: Inhibition of CDK4/cyclinD1 at 10 uM.
Test [5] is filed under the species Homo sapiens. Nature of the test: Inhibition of CK2-alpha1 at 10 uM.
Test [6] addresses Angiopoietin-1 receptor (Homo sapiens) (UniProt Q02763). Nature of the test: Inhibition of TIE2 at 10 uM.
Test [7] has as its target T1, NUAK family SNF1-like kinase 1 (Homo sapiens) (UniProt O60285).
T1 sequence (whole entry): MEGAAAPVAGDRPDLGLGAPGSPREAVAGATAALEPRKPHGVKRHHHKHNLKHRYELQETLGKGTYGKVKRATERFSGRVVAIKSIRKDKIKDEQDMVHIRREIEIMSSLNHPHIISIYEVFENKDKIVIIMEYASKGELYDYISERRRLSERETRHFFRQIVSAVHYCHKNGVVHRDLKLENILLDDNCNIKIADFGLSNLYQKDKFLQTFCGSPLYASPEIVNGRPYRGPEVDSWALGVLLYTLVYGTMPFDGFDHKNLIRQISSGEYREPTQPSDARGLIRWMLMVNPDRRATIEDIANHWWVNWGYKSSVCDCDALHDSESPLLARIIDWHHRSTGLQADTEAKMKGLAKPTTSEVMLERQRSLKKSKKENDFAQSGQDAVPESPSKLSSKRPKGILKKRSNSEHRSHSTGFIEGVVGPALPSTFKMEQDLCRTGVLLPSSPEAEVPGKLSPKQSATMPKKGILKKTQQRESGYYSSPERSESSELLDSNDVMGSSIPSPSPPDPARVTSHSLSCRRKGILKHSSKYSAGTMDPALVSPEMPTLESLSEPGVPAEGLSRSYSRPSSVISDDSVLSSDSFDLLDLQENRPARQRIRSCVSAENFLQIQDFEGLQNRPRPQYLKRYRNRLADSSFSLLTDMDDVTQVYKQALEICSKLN
Nature of the test: Inhibition of ARK5 at 10 uM.

The target of test [8] is Serine/threonine-protein kinase PAK 4 (Homo sapiens) (UniProt O96013). Nature of the test: Inhibition of PAK4 at 10 uM.
For test [9], the target named is T2, Serine/threonine-protein kinase PLK4 (Homo sapiens) (UniProt O00444).
T2 sequence (whole entry): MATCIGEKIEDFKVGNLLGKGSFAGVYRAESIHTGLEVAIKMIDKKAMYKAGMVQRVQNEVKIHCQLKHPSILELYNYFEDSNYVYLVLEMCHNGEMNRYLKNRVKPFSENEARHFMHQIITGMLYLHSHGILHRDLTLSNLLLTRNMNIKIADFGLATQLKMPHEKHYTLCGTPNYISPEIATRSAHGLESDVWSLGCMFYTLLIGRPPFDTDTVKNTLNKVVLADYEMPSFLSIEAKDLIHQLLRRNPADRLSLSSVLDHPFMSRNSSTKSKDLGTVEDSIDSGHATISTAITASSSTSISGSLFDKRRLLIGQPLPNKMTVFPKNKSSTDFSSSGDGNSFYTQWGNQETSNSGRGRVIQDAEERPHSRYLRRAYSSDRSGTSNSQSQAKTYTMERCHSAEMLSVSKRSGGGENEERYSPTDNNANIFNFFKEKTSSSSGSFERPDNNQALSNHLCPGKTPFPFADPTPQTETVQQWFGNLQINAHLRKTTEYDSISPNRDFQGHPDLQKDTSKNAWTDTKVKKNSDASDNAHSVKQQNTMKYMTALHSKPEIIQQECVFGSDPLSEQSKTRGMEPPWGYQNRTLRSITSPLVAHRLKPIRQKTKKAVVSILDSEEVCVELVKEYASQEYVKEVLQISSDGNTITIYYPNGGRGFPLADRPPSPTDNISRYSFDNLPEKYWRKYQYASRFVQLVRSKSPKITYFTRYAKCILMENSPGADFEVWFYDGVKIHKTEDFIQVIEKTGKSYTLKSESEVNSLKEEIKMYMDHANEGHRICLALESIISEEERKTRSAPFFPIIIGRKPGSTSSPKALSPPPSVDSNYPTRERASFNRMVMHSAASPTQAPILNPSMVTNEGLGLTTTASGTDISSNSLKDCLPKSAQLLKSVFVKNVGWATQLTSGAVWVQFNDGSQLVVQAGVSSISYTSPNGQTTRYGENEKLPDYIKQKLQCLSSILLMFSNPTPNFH
Kind of test: Inhibition of SAK at 10 uM.

The target of test [10] is Receptor-type tyrosine-protein kinase FLT3 (Homo sapiens, UniProt P36888). Nature of the test: Inhibition of FLT3.

The term inhibition denotes the relative decrease from the control value, in per cent. A higher inhibition goes with a response far below the control. A word on the IC50: it is the point on the concentration scale where inhibition reaches its midpoint. Low values mean greater potency in that assay, high ones weaker potency in that assay.

Sequence of Serine/threonine-protein kinase PAK 4 (Homo sapiens) (O96013 whole entry, looked up): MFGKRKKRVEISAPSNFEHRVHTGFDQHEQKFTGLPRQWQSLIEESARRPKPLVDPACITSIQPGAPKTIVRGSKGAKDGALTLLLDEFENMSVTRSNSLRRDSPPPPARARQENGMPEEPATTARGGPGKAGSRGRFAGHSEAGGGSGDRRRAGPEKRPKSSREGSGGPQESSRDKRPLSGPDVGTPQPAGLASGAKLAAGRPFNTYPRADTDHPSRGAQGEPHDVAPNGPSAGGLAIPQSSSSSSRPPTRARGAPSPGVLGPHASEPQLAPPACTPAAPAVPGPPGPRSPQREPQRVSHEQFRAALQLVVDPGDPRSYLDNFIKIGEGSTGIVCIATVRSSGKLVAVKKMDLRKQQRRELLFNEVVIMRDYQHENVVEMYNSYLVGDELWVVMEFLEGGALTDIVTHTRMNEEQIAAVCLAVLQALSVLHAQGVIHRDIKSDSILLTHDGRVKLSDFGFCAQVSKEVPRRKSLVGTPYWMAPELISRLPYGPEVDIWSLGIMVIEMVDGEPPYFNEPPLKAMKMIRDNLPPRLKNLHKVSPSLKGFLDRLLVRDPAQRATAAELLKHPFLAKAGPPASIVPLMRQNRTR
Sequence of Receptor tyrosine-protein kinase erbB-2 (Homo sapiens) (P04626 whole entry): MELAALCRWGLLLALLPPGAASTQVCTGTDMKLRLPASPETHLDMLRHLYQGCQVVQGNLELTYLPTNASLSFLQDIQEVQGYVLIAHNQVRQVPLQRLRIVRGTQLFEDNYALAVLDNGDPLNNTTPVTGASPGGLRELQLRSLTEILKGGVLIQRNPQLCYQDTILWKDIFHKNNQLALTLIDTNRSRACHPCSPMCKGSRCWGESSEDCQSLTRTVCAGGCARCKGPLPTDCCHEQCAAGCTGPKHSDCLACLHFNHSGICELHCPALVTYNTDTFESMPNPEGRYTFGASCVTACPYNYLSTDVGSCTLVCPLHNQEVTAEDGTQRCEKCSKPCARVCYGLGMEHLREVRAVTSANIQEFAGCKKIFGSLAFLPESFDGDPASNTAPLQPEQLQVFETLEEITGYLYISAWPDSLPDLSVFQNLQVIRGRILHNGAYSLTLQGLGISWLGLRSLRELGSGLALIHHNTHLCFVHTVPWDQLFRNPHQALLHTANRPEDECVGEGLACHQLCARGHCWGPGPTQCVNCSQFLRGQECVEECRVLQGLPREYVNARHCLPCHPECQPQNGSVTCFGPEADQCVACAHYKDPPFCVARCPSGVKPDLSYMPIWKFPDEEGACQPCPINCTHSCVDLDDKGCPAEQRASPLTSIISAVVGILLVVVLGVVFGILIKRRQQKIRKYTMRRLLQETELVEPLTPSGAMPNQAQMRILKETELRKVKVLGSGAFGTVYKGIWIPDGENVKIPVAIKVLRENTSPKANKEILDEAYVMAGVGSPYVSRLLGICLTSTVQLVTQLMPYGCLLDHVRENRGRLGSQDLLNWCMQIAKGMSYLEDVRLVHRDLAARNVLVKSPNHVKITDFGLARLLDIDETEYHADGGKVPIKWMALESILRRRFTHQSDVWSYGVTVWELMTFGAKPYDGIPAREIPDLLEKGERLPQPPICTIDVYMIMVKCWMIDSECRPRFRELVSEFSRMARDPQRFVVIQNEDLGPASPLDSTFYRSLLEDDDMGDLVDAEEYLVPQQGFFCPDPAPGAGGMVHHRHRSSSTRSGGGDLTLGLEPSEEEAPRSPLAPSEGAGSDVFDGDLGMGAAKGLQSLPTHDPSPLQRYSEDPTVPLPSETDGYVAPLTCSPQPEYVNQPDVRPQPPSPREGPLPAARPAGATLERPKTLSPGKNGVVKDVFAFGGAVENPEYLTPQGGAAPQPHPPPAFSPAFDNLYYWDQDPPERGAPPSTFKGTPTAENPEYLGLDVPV
Sequence of Vascular endothelial growth factor receptor 3 (P35916 whole entry): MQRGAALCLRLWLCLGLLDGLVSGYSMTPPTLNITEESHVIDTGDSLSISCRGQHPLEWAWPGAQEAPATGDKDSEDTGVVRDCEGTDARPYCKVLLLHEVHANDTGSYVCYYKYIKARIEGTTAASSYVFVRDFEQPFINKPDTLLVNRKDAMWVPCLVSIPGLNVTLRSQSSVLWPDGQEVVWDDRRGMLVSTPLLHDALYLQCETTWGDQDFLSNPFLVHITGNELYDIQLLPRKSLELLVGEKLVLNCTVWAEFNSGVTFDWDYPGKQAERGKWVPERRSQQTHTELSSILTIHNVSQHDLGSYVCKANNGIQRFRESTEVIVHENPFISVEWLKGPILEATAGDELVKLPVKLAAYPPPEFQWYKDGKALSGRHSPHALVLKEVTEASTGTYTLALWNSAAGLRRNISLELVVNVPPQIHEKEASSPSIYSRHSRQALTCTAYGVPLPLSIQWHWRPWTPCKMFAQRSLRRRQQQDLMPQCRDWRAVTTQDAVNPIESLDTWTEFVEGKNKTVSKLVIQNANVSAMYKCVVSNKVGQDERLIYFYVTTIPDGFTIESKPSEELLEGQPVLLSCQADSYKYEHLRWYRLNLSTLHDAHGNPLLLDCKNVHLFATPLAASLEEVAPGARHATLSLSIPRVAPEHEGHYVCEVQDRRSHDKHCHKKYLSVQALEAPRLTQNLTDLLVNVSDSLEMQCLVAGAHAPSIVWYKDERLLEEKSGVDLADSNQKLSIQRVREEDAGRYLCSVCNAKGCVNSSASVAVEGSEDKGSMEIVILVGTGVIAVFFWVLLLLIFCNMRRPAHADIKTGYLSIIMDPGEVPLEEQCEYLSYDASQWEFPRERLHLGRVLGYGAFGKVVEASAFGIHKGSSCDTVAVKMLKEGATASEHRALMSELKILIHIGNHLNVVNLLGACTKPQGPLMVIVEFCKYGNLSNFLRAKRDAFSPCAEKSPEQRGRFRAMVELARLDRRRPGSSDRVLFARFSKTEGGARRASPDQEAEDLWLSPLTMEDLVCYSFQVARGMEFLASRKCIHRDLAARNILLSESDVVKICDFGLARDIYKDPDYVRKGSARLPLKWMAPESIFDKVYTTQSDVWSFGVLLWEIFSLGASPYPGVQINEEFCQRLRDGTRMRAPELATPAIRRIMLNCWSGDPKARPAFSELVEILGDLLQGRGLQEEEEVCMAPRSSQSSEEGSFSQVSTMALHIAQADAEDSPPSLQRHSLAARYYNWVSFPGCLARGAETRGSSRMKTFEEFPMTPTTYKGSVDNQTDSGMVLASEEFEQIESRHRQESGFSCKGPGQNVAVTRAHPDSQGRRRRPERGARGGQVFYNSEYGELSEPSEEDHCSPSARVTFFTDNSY
Sequence of Angiopoietin-1 receptor (Homo sapiens) (Q02763 whole entry): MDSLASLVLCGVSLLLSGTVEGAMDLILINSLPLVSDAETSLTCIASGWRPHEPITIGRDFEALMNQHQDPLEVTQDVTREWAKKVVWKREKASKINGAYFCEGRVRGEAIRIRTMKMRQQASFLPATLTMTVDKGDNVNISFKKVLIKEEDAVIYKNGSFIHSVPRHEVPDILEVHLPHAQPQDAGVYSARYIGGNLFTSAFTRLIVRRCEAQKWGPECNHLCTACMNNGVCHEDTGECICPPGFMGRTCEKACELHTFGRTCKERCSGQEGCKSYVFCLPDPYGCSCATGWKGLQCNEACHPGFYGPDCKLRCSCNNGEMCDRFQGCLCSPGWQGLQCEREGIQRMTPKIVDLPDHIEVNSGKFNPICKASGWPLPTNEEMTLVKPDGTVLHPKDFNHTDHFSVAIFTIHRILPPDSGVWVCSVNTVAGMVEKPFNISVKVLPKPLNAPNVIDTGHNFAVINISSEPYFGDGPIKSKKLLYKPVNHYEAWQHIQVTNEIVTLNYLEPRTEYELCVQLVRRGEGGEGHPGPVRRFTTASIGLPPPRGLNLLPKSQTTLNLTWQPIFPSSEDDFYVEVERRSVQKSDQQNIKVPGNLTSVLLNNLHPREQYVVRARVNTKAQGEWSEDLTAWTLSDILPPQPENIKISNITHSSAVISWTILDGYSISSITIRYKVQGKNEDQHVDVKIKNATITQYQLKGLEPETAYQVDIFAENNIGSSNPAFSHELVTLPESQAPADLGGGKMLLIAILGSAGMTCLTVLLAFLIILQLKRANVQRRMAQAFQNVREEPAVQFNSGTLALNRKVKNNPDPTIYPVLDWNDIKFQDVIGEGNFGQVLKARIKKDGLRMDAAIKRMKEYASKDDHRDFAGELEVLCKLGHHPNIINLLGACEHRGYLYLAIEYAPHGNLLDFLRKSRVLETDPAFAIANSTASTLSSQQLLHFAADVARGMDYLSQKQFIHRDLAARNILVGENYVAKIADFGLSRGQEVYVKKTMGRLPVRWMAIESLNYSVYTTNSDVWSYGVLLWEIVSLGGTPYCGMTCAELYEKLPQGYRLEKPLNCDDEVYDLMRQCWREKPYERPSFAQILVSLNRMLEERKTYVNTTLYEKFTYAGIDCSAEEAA

As to `O=C1Cc2cnn(-c3ccc(Cl)cc3)c2-c2ccccc2N1`, the inhibition (in test [1]; in test [2]; in test [3]; in the test listed under Homo sapiens [4]; in the test listed under Homo sapiens [5]; in [6]) was less than 40% throughout. The inhibition in test [7], in test [8] and in test [9] was less than 40% in each case. The compound also yielded an IC50 in test [10] greater than 10 µM.
